ChEMBL document CHEMBL1201862, “PubChem BioAssay data set” (2004)
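Exposure lasted 48 hours, with cells grown in 96-well plates and compounds tested at five concentrations. GI50: concentration for 50% inhibition of growth.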 Active and inactive are the calls of the source. No stated cut-off is given here; in the data, active = GI50 up to about 1.1 µM and inactive = higher.

Legend:
Test in all cases: NCI-60 cell line screen, 48 h
A549 = system: A549
SR = system: SR
M14 = system: M14
OVCAR-4 = system: OVCAR-4
SK-MEL-28 = system: SK-MEL-28
HOP-62 = system: HOP-62
NCI-H522 = system: NCI-H522
UACC-62 = system: UACC-62
HT-29 = system: HT-29
CCRF-CEM = system: CCRF-CEM
SF-539 = system: SF-539
SW-620 = system: SW-620
LOX IMVI = system: LOX IMVI
SK-MEL-5 = system: SK-MEL-5
A498 = system: A498
MDA-MB-435 = system: MDA-MB-435
PC-3 = system: PC-3
NCI/ADR-RES = system: NCI/ADR-RES
T47D = system: T47D

| SMILES | GI50 (A549) | GI50 (SR) | GI50 (M14) | GI50 (OVCAR-4) | GI50 (SK-MEL-28) | GI50 (HOP-62) | GI50 (NCI-H522) | GI50 (UACC-62) | GI50 (HT-29) | GI50 (CCRF-CEM) | GI50 (SF-539) | GI50 (SW-620) | GI50 (LOX IMVI) | GI50 (SK-MEL-5) | GI50 (A498) | GI50 (MDA-MB-435) | GI50 (PC-3) | GI50 (NCI/ADR-RES) | GI50 (T47D) |
| --- | --- | --- | --- | --- | --- | --- | --- | --- | --- | --- | --- | --- | --- | --- | --- | --- | --- | --- | --- |
| Oc1cc(-c2ccc3c(c2)OCO3)nc2cc3c(cc12)OCO3 | 42.9 µM (inactive) | 6.35 µM (inactive) | 27.9 µM (inactive) | > 100 µM (inactive) | 37.4 µM (inactive) | 22.9 µM (inactive) | 40.2 µM (inactive) | 36.9 µM (inactive) | 37.8 µM (inactive) | 31.7 µM (inactive) | 23 µM (inactive) | 35.8 µM (inactive) | 57.8 µM (inactive) | – | – | – | – | – | – |
| COc1ccc(C(O)/C(=C/n2ccnc2)c2ccccc2)cc1OC (configuration not stated) | > 100 µM (inactive) | > 100 µM (inactive) | > 100 µM (inactive) | > 100 µM (inactive) | > 100 µM (inactive) | > 100 µM (inactive) | – | > 100 µM (inactive) | > 100 µM (inactive) | > 100 µM (inactive) | > 100 µM (inactive) | > 100 µM (inactive) | > 100 µM (inactive) | > 100 µM (inactive) | > 100 µM (inactive) | – | – | – | – |
| CCNC(=S)N/N=C/c1cc(OC)ccc1O | 52.8 µM (inactive) | 69.5 µM (inactive) | > 100 µM (inactive) | 33.7 µM (inactive) | > 100 µM (inactive) | > 100 µM (inactive) | 65.8 µM (inactive) | 99.1 µM (inactive) | > 100 µM (inactive) | 66.5 µM (inactive) | > 100 µM (inactive) | > 100 µM (inactive) | 99.3 µM (inactive) | > 100 µM (inactive) | – | 64.6 µM (inactive) | 56.2 µM (inactive) | 83.6 µM (inactive) | 24.3 µM (inactive) |
| COc1ccccc1NC(=S)N/N=C(/C)c1ccccn1 | < 0.0274 µM (active) | – | < 0.01 µM (active) | 0.184 µM (active) | 1.71 µM (inactive) | < 0.0127 µM (active) | – | 0.238 µM (active) | < 0.01 µM (active) | < 0.01 µM (active) | 0.371 µM (active) | < 0.01 µM (active) | < 0.01 µM (active) | < 0.041 µM (active) | – | 0.968 µM (active) | < 0.01 µM (active) | < 0.01 µM (active) | < 0.01 µM (active) |
| CCC1(O)C(=O)OCc2c1cc1n(c2=O)Cc2c-1nc1ccccc1c2OC (configuration not stated) | < 0.0127 µM (active) | < 0.01 µM (active) | < 0.0176 µM (active) | 0.187 µM (active) | 0.32 µM (active) | < 0.01 µM (active) | 0.0242 µM (active) | < 0.01 µM (active) | 0.061 µM (active) | < 0.01 µM (active) | < 0.01 µM (active) | < 0.01 µM (active) | < 0.01 µM (active) | 0.0184 µM (active) | 0.0513 µM (active) | – | – | – | – |
| COc1ccc2c(c1)Oc1cc(O)ccc1[C@@H]2c1ccccc1C(=O)NC(C)c1ccccc1 (some centres not stated) | 17.7 µM (inactive) | – | 12.2 µM (inactive) | – | 15.4 µM (inactive) | 15.3 µM (inactive) | 14.4 µM (inactive) | 13.6 µM (inactive) | 15.3 µM (inactive) | 15.8 µM (inactive) | 16.3 µM (inactive) | 19 µM (inactive) | 15.9 µM (inactive) | 17.7 µM (inactive) | 17.7 µM (inactive) | – | – | – | – |
| Cc1ccc(C(=O)NCCN(C)C)c2nc3ccccc3cc12 | 0.92 µM (active) | – | 2.69 µM (inactive) | 3.74 µM (inactive) | 1.95 µM (inactive) | 8.24 µM (inactive) | – | 2.47 µM (inactive) | 0.462 µM (active) | 1.54 µM (inactive) | – | 0.445 µM (active) | 0.561 µM (active) | 1.52 µM (inactive) | – | – | – | – | – |
| N#C/C(=C1\SCC(=O)N1c1ccccc1)c1nc2ccccc2[nH]1 | > 100 µM (inactive) | – | > 100 µM (inactive) | > 100 µM (inactive) | > 100 µM (inactive) | > 100 µM (inactive) | > 100 µM (inactive) | > 100 µM (inactive) | > 100 µM (inactive) | > 100 µM (inactive) | > 100 µM (inactive) | > 100 µM (inactive) | > 100 µM (inactive) | > 100 µM (inactive) | > 100 µM (inactive) | – | – | – | – |
| CCN(CC)CC(C(=O)Nc1c(C)cccc1C)/C(C)=N\NC(=O)c1ccncc1 (configuration not stated) | > 100 µM (inactive) | > 100 µM (inactive) | > 100 µM (inactive) | > 100 µM (inactive) | > 100 µM (inactive) | > 100 µM (inactive) | > 100 µM (inactive) | – | > 100 µM (inactive) | – | > 100 µM (inactive) | – | > 100 µM (inactive) | > 100 µM (inactive) | > 100 µM (inactive) | – | – | – | – |
| COC(=O)N/N=C(\C(=O)Nc1cccc([N+](=O)[O-])c1)c1nc2ccc([N+](=O)[O-])cc2nc1O | 42.9 µM (inactive) | > 100 µM (inactive) | 45.3 µM (inactive) | > 100 µM (inactive) | > 100 µM (inactive) | 26.4 µM (inactive) | 3.47 µM (inactive) | 12.4 µM (inactive) | 60.7 µM (inactive) | > 100 µM (inactive) | 39.5 µM (inactive) | 45.1 µM (inactive) | 18.6 µM (inactive) | 34 µM (inactive) | – | – | – | – | – |
| COP(=O)(OC)C(NC(=O)C(F)(F)F)(c1ccccc1)C(F)(F)F (configuration not stated) | > 100 µM (inactive) | > 100 µM (inactive) | > 100 µM (inactive) | > 100 µM (inactive) | > 100 µM (inactive) | > 100 µM (inactive) | > 100 µM (inactive) | > 100 µM (inactive) | > 100 µM (inactive) | > 100 µM (inactive) | > 100 µM (inactive) | > 100 µM (inactive) | > 100 µM (inactive) | > 100 µM (inactive) | > 100 µM (inactive) | – | – | – | – |
| O=[N+]([O-])c1cnn(C2=CNc3ccccc3N=C2)c1 | > 100 µM (inactive) | > 100 µM (inactive) | – | – | > 100 µM (inactive) | > 100 µM (inactive) | – | > 100 µM (inactive) | > 100 µM (inactive) | > 100 µM (inactive) | > 100 µM (inactive) | – | – | – | – | – | – | – | – |
| O=C1CC[C@@H](S(=O)(=O)c2ccccc2)[C@@H](/C=C/c2ccccc2)O1 | > 100 µM (inactive) | > 100 µM (inactive) | > 100 µM (inactive) | > 100 µM (inactive) | > 100 µM (inactive) | > 100 µM (inactive) | > 100 µM (inactive) | > 100 µM (inactive) | > 100 µM (inactive) | > 100 µM (inactive) | > 100 µM (inactive) | > 100 µM (inactive) | > 100 µM (inactive) | > 100 µM (inactive) | > 100 µM (inactive) | – | – | – | – |
| Cc1ccc2c(ccc(/C=C\c3cc(C)c4cccnc4c3O)[n+]2C)c1 | 8.43 µM (inactive) | 2.12 µM (inactive) | 0.664 µM (active) | 14.4 µM (inactive) | – | 5.5 µM (inactive) | 4.34 µM (inactive) | 0.535 µM (active) | – | 0.796 µM (active) | 1.64 µM (inactive) | 1.66 µM (inactive) | 0.791 µM (active) | 0.372 µM (active) | 14.6 µM (inactive) | – | – | – | – |
| CC(C)(C)CC(C)(C)NCC(O)COc1ccc(C(C)(C)c2ccc(OCC(O)CNC(C)(C)CC(C)(C)C)cc2)cc1 (configuration not stated) | 1.6 µM (inactive) | 0.366 µM (active) | 0.279 µM (active) | 2.01 µM (inactive) | 0.615 µM (active) | 1.77 µM (inactive) | 1.61 µM (inactive) | 1.81 µM (inactive) | 0.403 µM (active) | 0.356 µM (active) | 1.86 µM (inactive) | 0.213 µM (active) | 0.429 µM (active) | 1.32 µM (inactive) | 1.58 µM (inactive) | – | – | – | – |
| COC(=O)C1=C(C[S+]([O-])c2ccc([N+](=O)[O-])cc2[N+](=O)[O-])C2C=CC1C2 (configuration not stated) | 57 µM (inactive) | – | 42.6 µM (inactive) | 25.7 µM (inactive) | – | > 100 µM (inactive) | 13.8 µM (inactive) | 18 µM (inactive) | 17.7 µM (inactive) | 11.8 µM (inactive) | 24.3 µM (inactive) | 14.4 µM (inactive) | 13.5 µM (inactive) | 63.2 µM (inactive) | > 100 µM (inactive) | – | – | – | – |
| N#CC(C#N)=c1ccc(=C2NCC3CCCN23)cc1 (configuration not stated) | > 100 µM (inactive) | > 100 µM (inactive) | > 100 µM (inactive) | > 100 µM (inactive) | – | > 100 µM (inactive) | > 100 µM (inactive) | > 100 µM (inactive) | > 100 µM (inactive) | > 100 µM (inactive) | > 100 µM (inactive) | > 100 µM (inactive) | > 100 µM (inactive) | > 100 µM (inactive) | > 100 µM (inactive) | – | – | – | – |
| CC(=O)NC1=C(Nc2ccc(C)cc2)C(=O)c2ccccc2C1=O | 14.3 µM (inactive) | – | 13.5 µM (inactive) | 17.7 µM (inactive) | 17.6 µM (inactive) | 17.1 µM (inactive) | – | 10.9 µM (inactive) | 15.2 µM (inactive) | 17.1 µM (inactive) | 16.2 µM (inactive) | 13.5 µM (inactive) | 9.53 µM (inactive) | 10.2 µM (inactive) | 50.2 µM (inactive) | – | – | – | – |
| CCOC(=O)/C(C)=C(/O)C(=O)OCC | > 100 µM (inactive) | – | > 100 µM (inactive) | > 100 µM (inactive) | > 100 µM (inactive) | > 100 µM (inactive) | > 100 µM (inactive) | > 100 µM (inactive) | > 100 µM (inactive) | > 100 µM (inactive) | > 100 µM (inactive) | > 100 µM (inactive) | > 100 µM (inactive) | > 100 µM (inactive) | > 100 µM (inactive) | – | – | – | – |
| COC(=O)[C@@]12C3=NO[C@]1(C(=O)OC)C(O[Si](C)(C)C(C)(C)C)C1OC(C)(C)OC1[C@@H]2[C@@H](OCc1ccccc1)CC3 (some centres not stated) | > 100 µM (inactive) | – | 43.9 µM (inactive) | 23.9 µM (inactive) | > 100 µM (inactive) | – | – | > 100 µM (inactive) | 33 µM (inactive) | > 100 µM (inactive) | > 100 µM (inactive) | > 100 µM (inactive) | 83.9 µM (inactive) | 85.5 µM (inactive) | > 100 µM (inactive) | – | – | – | – |
